Data: US7527935B2, “G-protein coupled receptor having eicosanoid as ligand and gene thereof” (Mitsubishi Tanabe Pharma Corporation, priority 2002, dated 2009)

Key:
[1] = target: T1, fusion protein of TG1019 protein and Giα1 (Homo sapiens, UniProt P63096+Q8TDS5, C351I/D111G/K206E/T295A); experiment: Antagonist assay: inhibition of 5-oxo-ETE-stimulated G-protein activation ([35S]GTPγS binding) of TG1019-Giα1 fusion membrane fraction; format: biochemical; settings: inhibition of G-protein activating effect of TG1019 by 5-oxo-ETE 0.1 μM
T1 construct: made in house; host or cells: Sf9 insect cells (baculovirus, pVL1392), membrane fraction
Experimental: In the presence of 5-oxo-ETE (a ligand which acts as an agonist) and a test compound, a G-protein activating effect of TG1019 protein based on 5-oxo-ETE stimulation was detected, and an antagonistic effect of the test compound was examined.
Detection of the G-protein activation was carried out in a similar manner as in Example 3 (3) mentioned above, using a membrane fraction containing a fusion protein of TG1019 protein and Giα1 and a labeled GTPγS.
Specifically, a membrane fraction (450 μl) containing a fusion protein of TG1019 protein and Giα1 was suspended in a reaction solution (7.54 ml), and added thereto was 10 μl of GDP (10 mM). To 160 μl of this solution were added 5-oxo-ETE (the final concentration of 0.1 μM) and a test compound at various concentrations (0M, 10^−7M -10^−5M), and the mixture was incubated at 30° C. for 10 minutes (a total amount of 5-oxo-ETE and the test compound: 20 μl).
Added thereto was 20 μl of [^35S] GTPγS to start a reaction. After incubation at 30° C. for one hour, the reaction was terminated by filtration through a glass filter.
An amount of the [^35S] GTPγS (a binding amount to the membrane fraction) on the filter was measured by liquid scintillation counting. From the thus measured [^35S] GTPγS amount was subtracted a nonspecific binding amount (a binding amount measured in the presence of 10 μM GTPγS), to obtain a specific binding amount.

[2] = target: T2, fusion protein of TG1019 protein and Giα1 (351Cys→Ile) (Homo sapiens, UniProt P63096+Q8TDS5, C351I/D111G/K206E/T295A); experiment: [35S]GTPγS binding to membrane fraction containing TG1019-Giα1 (351Cys→Ile) fusion protein (ligand identification); format: biochemical; settings: membrane fraction with TG1019-Giα1 (351Cys→Ile) fusion protein
T2 construct: made in house; host or cells: Sf9 insect cells (baculovirus, pVL1392), membrane fraction
Source text: (§1) As stated in Example 1, it is concluded that TG1019 protein is a G-protein coupled receptor. Therefore, using a membrane fraction containing fused protein of TG1019 and G-protein, a ligand is identified as follows, according to a method for detecting a ligand-dependent binding with GTPγS (guanosine 5′-O-(3-thiotriphosphate)) [Wenzel-Seifert, et al., Mol. Pharmacom., Vol. 58, pp. 954-966, 2000; Bahia, et al., Biochemistry, Vol. 37, pp. 11555-11562, 1998].
Sf9 cells were inoculated onto a 10 cm Petri dish coated with collagen to about 70% confluence, and added thereto were Virus solution III (100 μl) obtained above and 12 ml of a culture medium, and the mixture was cultured at 27° C. for 4 days. The obtained cells were washed with a cooled PBS (Phosphate buffered saline, pH 7.4), and suspended in 3.6 ml of a cooled solution buffer [20 mM Tris-HCl, pH 7.5, 1 mM EDTA, 0.2 mM phenylmethylsulfonyl fluoride, 10 μg/ml pepstatin, 10 μg/ml leupeptin, and 2 μg/ml aprotinin], and the cells were homogenized by means of a Teflon homogenizer. This cell homogenate was centrifuged (600×g, 10 minutes), and the resultant supernatant was further centrifuged (50,000×g, 20 minutes). The obtained sediments were suspended in 450 μl of a cooled reaction buffer [20 mM Tris-HCl, pH 7.5, 50 mM sodium chloride, 10 mM magnesium chloride] by means of a Teflon homogenizer, to prepare a membrane fraction containing a fusion protein.
The membrane fraction (450 μl) obtained above (2) was suspended in a reaction buffer (7.54 ml), and added thereto was GDP (10 mM, 10 μl). To 160 μl of this solution was added 20 μl of a test compound. After incubating the mixture at 30° C. for 10 minutes, 20 μl of [^35S] GTPγS (5 nM, 5 nCi/μl: available from Amersham Pharmacia Biotech) was added to start reaction. After incubating the mixture at 30° C. for one hour, the reaction was terminated by filtration through a glass filter (UniFilter-96GF/B, available from Packard). The filter was washed with 200 μl of a cooled reaction buffer for 3 times, and an amount of the [^35S] GTPγS (a binding amount to the membrane fraction) on the filter was measured by liquid scintillation counting. From the thus measured [^35S] GTPγS binding amount was subtracted a nonspecific binding amount (a binding amount measured in the presence of 10 μM GTPγS), to obtain a specific binding amount of [^35S ] GTPγS.

[3] = test system: TG1019 (5-oxo-ETE receptor); experiment: Intracellular calcium level in CHO cells stably expressing TG1019; format: cell-based, human; settings: FuraII 340/380 nm ratio
Experimental: (1) Preparation of cells stably expressing TG1019 Cells stably expressing TG1019 (the receptor protein of the present invention) and cells not expressing TG1019 were prepared by introducing to CHO cells the TG1019 protein expression vector prepared in Example 5 and the control vector, as described below.
The cells stably expressing TG1019 prepared in the above section (1) was incubated in DMEM/F12 medium supplemented with 10% fetal bovine serum at 37° C. in a CO2 incubator. To the cells which were 80 to 90% confluent, was added a cell dissociation buffer (Cell Dissociation Buffer Enzyme-free PBS-based, available from Invitrogen), and cells were dissociated by incubating at 37° C. for 5 minutes. […]
The cells after loading were centrifuged once with an assay buffer, to remove supernatant, and then, they were suspended in an assay buffer to have a concentration of 3.7 to 6.3×10^6 cells/ml. This cell suspension was portioned into a 96 well plate by 80 μl/well, and the plate was set in a fluorescence measuring device (FDSS6000, [Hamamatsu Photonics]), and the reaction was started by adding a solution containing 5-oxo-ETE or 5-HETE in a 5 fold concentration dissolved in an assay buffer, by 20 μl/well. The measurement was done by measuring fluorescence intensity at 510 nm, with excitation wavelength of 340 nm and 380 nm.

[4] = test system: PC3 human prostate cancer cells; experiment: Apoptosis analysis (annexin V / PI flow cytometry) in PC3 cells; format: cell-based; settings: 20 μl of 1 mM DHA in 2 ml, 2 hours
Experimental: PC3 human prostate cancer cells, which had been cultured in RPMI1640 culture medium supplemented with 10% fetal bovine serum were dissociated by trypsin-EDTA solution (GibcoBRL), and suspended in RPMI1640 culture medium supplemented with 0.5% fetal bovine serum. The cells were plated onto a 6 cm Petri dish to 2×10^5 cells/dish, and cultured at 37° C. for 18 hours in a CO2 incubator. The supernatant was removed and 1980 μl of the same medium was added, and 20 μl of 1 mM DHA was further added thereto, and the mixture was cultured at 37° C. for 2 hours in a CO2 incubator.
In addition, as a test in the presence of 5-oxo-ETE, 1960 μl of RPMI1640 culture medium supplemented with 0.5% fetal bovine serum was added, and 20 μl of a 100 μM 5-oxo-ETE solution and 20 μl of a 1 mM DHA solution were further added thereto, and the cells were cultured in a similar manner as described above.
The adhered cells were removed by a cell scraper, transferred to a 1.5 ml tube, and centrifuged at 800×g for 5 minutes at 4° C., to collect suspended and adhered cells. […] The cells were suspended in 100 μl of a FITC-Annexin solution, and after 15 minutes of reaction under light-shielded condition at room temperature, 300 μl of Binding buffer was added thereto, and the FITC-Annexin bound to the cells and propidium iodide (PI) uptake into the cells were measured, by means of flow cytometer [Becton Dickinson].

[5] = target: T3, fusion protein of TG1019 protein and Gqα (Homo sapiens, UniProt Q8TDS5, D111G/K206E/T295A); experiment: [35S]GTPγS binding to membrane fraction containing TG1019-Gqα fusion protein; format: biochemical; settings: membrane fraction with TG1019-Gqα fusion protein; increase small compared to Giα
T3 construct: made in house; host or cells: Sf9 insect cells (baculovirus, pVL1392), membrane fraction
Source text: as §1
Sf9 cells were inoculated onto a 10 cm Petri dish coated with collagen to about 70% confluence, and added thereto were Virus solution III (100 μl) obtained above and 12 ml of a culture medium, and the mixture was cultured at 27° C. for 4 days. […]
The membrane fraction (450 μl) obtained above (2) was suspended in a reaction buffer (7.54 ml), and added thereto was GDP (10 mM, 10 μl). […] GTPγS (a binding amount to the membrane fraction) on the filter was measured by liquid scintillation counting. From the thus measured [^35S] GTPγS binding amount was subtracted a nonspecific binding amount (a binding amount measured in the presence of 10 μM GTPγS), to obtain a specific binding amount of [^35S ] […]

T2 sequence (Q8TDS5+P63096 fused Q8TDS5:D111G/Q8TDS5:K206E/Q8TDS5:T295A/P63096:C351I): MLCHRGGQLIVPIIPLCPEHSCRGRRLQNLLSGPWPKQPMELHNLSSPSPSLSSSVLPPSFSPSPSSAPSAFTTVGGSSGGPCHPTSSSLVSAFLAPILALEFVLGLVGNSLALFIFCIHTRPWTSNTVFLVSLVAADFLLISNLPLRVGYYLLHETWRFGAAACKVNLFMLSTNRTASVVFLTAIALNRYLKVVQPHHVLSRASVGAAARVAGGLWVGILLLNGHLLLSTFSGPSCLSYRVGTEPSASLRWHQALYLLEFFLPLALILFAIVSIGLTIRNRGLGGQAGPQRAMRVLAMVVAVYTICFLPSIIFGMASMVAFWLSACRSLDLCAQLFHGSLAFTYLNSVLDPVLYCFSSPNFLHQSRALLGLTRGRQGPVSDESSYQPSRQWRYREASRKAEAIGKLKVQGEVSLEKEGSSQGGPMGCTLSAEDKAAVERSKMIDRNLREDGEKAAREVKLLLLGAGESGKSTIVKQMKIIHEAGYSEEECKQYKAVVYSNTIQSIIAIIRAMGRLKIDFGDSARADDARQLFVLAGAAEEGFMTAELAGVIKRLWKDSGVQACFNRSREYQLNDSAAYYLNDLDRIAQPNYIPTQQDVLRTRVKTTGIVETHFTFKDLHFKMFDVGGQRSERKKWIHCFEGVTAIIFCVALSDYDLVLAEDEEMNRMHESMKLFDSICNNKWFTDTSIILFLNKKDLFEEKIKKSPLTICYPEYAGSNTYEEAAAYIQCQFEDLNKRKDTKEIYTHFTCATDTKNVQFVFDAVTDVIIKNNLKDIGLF
T1 sequence (Q8TDS5+P63096 fused Q8TDS5:D111G/Q8TDS5:K206E/Q8TDS5:T295A/P63096:C351I): as above
T3 sequence (Q8TDS5 with tags, fused parts or gaps D111G/K206E/T295A): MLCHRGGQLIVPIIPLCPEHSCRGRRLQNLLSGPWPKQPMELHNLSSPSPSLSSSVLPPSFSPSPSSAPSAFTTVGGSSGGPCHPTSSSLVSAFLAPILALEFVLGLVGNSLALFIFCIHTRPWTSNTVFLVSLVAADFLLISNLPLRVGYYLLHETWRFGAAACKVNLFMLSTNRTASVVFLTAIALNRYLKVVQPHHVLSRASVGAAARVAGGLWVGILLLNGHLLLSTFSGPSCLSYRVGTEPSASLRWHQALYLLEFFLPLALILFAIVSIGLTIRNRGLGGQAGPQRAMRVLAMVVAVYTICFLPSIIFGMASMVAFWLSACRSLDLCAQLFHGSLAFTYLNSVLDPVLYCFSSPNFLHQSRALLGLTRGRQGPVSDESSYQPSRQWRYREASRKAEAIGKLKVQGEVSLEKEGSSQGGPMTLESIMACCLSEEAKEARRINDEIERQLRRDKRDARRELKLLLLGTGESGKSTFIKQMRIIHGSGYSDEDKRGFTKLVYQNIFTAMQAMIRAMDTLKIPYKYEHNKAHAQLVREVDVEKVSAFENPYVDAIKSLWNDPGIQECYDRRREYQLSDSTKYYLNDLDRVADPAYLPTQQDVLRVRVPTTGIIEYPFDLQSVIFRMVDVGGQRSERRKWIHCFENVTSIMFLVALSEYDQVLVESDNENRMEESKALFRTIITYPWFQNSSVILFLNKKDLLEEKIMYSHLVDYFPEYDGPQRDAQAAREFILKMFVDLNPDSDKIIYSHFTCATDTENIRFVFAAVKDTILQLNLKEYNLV

Row | SMILES | IC50 [1] [µM] | specific binding amount of [35S]GTPγS [2] | further results
1 | CC/C=C\C/C=C\C/C=C\CCCCCCCCCC(=O)O [Eicosa-11Z, 14Z, 17Z-trienoic acid] | 5.1 ± 0.6 |  | 
2 | CCCCCCCCC#CCC#CCC#CCCCC(=O)O [ETI, 5,8,11-eicosatriynoic acid] |  | increased in a concentration-dependent manner | 
3 | CCCCC/C=C\C/C=C\C/C=C\C=C\C(O)CCCC(=O)O (centres unmarked) [5-HETE, 5-hydroxyeicosa-6E,8Z,11Z,14Z-tetraenoic acid] |  | increased in a concentration-dependent manner | change in intracellular calcium level [3]: increase in intracellular calcium level
4 | CCCCCCCCCCC/C=C\C/C=C\CCCC(=O)O [eicosa-5Z,8Z-dienoic acid] |  | increased in a concentration-dependent manner | 
5 | CC/C=C\C/C=C\C/C=C\C/C=C\C/C=C\C/C=C\CCC(=O)O [DHA, 4Z, 7Z, 10Z, 13Z, 16Z, 19Z-docosahexaenoic acid] | 1.6 ± 0.2 |  | induction of apoptosis (cells annexin positive, PI uptake negative) [4]: induces apoptosis of PC3 cells
6 | CCCCC/C=C\C/C=C\C/C=C\C/C=C\CCCC(=O)O [arachidonic acid] |  | increased in a concentration-dependent manner | 
7 | CCCCCCCC/C=C\C/C=C\C=C\C(O)CCCC(=O)O (centres unmarked) [5-HETrE, 5-hydroxyeicosa-6E,8Z,11Z-trienoic acid] |  | increased in a concentration-dependent manner | 
8 | CCCCCCCC/C=C\C/C=C\C/C=C\CCCC(=O)O [eicosa-5Z,8Z,11Z-trienoic acid] |  | increased in a concentration-dependent manner | 
9 | CC/C=C\C/C=C\C/C=C\C/C=C\C/C=C\CCCC(=O)O [EPA, 5Z, 8Z, 11Z, 14Z, 17Z-eicosapentaenoic acid] | 6 ± 1.2 |  | 
10 | CCCCC/C=C\C/C=C\C/C=C\C=C\C(CCCC(=O)O)OO (centres unmarked) [5-HPETE, 5-hydroperoxyeicosa-6E,8Z,11Z,14Z-tetraenoic acid] |  | increased in a concentration-dependent manner | specific binding amount of [35S]GTPγS [5]: increased
11 | CCCCC/C=C\C/C=C\C/C=C\CCCCCCC(=O)O [Dihomo-γ-linolenic accid] | 3.7 ± 0.7 |  | 
